Test results taken from the supplement of paper PMC10307832.

Legend:
Assay in all cases: relative viability (nuclei count vs DMSO), 5 days (fraction); higher = more cells survive
NCI-H727 = system: NCI-H727
In short: (§1)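 One day after seeding in 1536-well plates, lung cancer cell lines were dosed by pin tool. Dosing was either single-drug or a fixed anchor-drug dose plus five library-drug doses (not always all listed) in √10 steps. After 5 days, nuclei were stained in one fix-and-stain step and counted on 4× images, and relative viability is the nuclei count of treated wells over that of vehicle wells, given as the median of duplicate plates.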

NCI-H2023 = system: NCI-H2023
In short: as §1

RERF-LC-KJ = system: RERF-LC-KJ
In short: as §1

NCI-H2126 = system: NCI-H2126
In short: as §1

NCI-H650 = system: NCI-H650
In short: as §1

LOU-NH91 = system: LOU-NH91
In short: as §1

NCI-H1755 = system: NCI-H1755
In short: as §1

NCI-H1437 = system: NCI-H1437
In short: as §1

HCC-78 = system: HCC-78
In short: as §1

LCLC-103H = system: LCLC-103H
In short: as §1

NCI-H441 = system: NCI-H441
In short: as §1

HCC-827 = system: HCC-827
In short: as §1

NCI-H1792 = system: NCI-H1792
In short: as §1

NCI-H2085 = system: NCI-H2085
In short: as §1

NCI-H2342 = system: NCI-H2342
In short: as §1

NCI-H2170 = system: NCI-H2170
In short: as §1

LCLC-97TM1 = system: LCLC-97TM1
In short: as §1

SK-MES-1 = system: SK-MES-1
In short: as §1

201T = system: 201T
In short: as §1

NCI-H596 = system: NCI-H596
In short: as §1

ChaGo-K-1 = system: ChaGo-K-1
In short: as §1

NCI-H2405 = system: NCI-H2405
In short: as §1

SMILES: COCC1(CO)C(=O)C2CCN1CC2 (stereo not given) [PRIMA-1MET] + Nc1ncn([C@H]2C[C@H](O)[C@@H](CO)O2)c(=O)n1 [Decitabine] (partner 2 µM)
- relative viability (NCI-H727; first compound 0.2 µM): 0.594
- relative viability (NCI-H727; first compound 0.6325 µM): 0.385
- relative viability (NCI-H727; first compound 6.325 µM): 0.849
- relative viability (NCI-H727; first compound 20 µM): 0.685
- relative viability (NCI-H2023; first compound 0.2 µM): 0.211
- relative viability (NCI-H2023; first compound 0.6325 µM): 0.128
- relative viability (NCI-H2023; first compound 2 µM): 0.235
- relative viability (NCI-H2023; first compound 6.325 µM): 0.216
- relative viability (NCI-H2023; first compound 20 µM): 0.209
- relative viability (RERF-LC-KJ; first compound 0.2 µM): 0.753
- relative viability (RERF-LC-KJ; first compound 0.6325 µM): 0.617
- relative viability (RERF-LC-KJ; first compound 2 µM): 0.718
- relative viability (RERF-LC-KJ; first compound 6.325 µM): 0.69
- relative viability (RERF-LC-KJ; first compound 20 µM): 0.595
- relative viability (NCI-H2126; first compound 0.2 µM): 0.59
- relative viability (NCI-H2126; first compound 0.6325 µM): 0.579
- relative viability (NCI-H2126; first compound 2 µM): 0.544
- relative viability (NCI-H2126; first compound 6.325 µM): 0.631
- relative viability (NCI-H2126; first compound 20 µM): 0.619
- relative viability (NCI-H650; first compound 0.2 µM): 0.315
- relative viability (NCI-H650; first compound 0.6325 µM): 0.255
- relative viability (NCI-H650; first compound 2 µM): 0.315
- relative viability (NCI-H650; first compound 6.325 µM): 0.332
- relative viability (NCI-H650; first compound 20 µM): 0.199
- relative viability (LOU-NH91; first compound 0.2 µM): 0.89
- relative viability (LOU-NH91; first compound 0.6325 µM): 0.794
- relative viability (LOU-NH91; first compound 2 µM): 0.806
- relative viability (LOU-NH91; first compound 6.325 µM): 0.828
- relative viability (LOU-NH91; first compound 20 µM): 0.613
- relative viability (NCI-H1755; first compound 0.2 µM): 0.785
- relative viability (NCI-H1755; first compound 0.6325 µM): 0.583
- relative viability (NCI-H1755; first compound 2 µM): 0.72
- relative viability (NCI-H1755; first compound 6.325 µM): 0.723
- relative viability (NCI-H1755; first compound 20 µM): 0.772
- relative viability (NCI-H1437; first compound 0.2 µM): 0.607
- relative viability (NCI-H1437; first compound 0.6325 µM): 0.37
- relative viability (NCI-H1437; first compound 2 µM): 0.599
- relative viability (NCI-H1437; first compound 6.325 µM): 0.59
- relative viability (NCI-H1437; first compound 20 µM): 0.552
- relative viability (HCC-78; first compound 0.2 µM): 0.643
- relative viability (HCC-78; first compound 0.6325 µM): 0.598
- relative viability (HCC-78; first compound 2 µM): 0.553
- relative viability (HCC-78; first compound 6.325 µM): 0.697
- relative viability (HCC-78; first compound 20 µM): 0.377
- relative viability (LCLC-103H; first compound 0.2 µM): 0.757
- relative viability (LCLC-103H; first compound 0.6325 µM): 0.55
- relative viability (LCLC-103H; first compound 2 µM): 0.685
- relative viability (LCLC-103H; first compound 6.325 µM): 0.78
- relative viability (LCLC-103H; first compound 20 µM): 0.716
- relative viability (NCI-H441; first compound 0.2 µM): 0.232
- relative viability (NCI-H441; first compound 0.6325 µM): 0.21
- relative viability (NCI-H441; first compound 2 µM): 0.22
- relative viability (NCI-H441; first compound 6.325 µM): 0.23
- relative viability (NCI-H441; first compound 20 µM): 0.169
- relative viability (HCC-827; first compound 0.2 µM): 0.343
- relative viability (HCC-827; first compound 0.6325 µM): 0.157
- relative viability (HCC-827; first compound 2 µM): 0.302
- relative viability (HCC-827; first compound 6.325 µM): 0.384
- relative viability (HCC-827; first compound 20 µM): 0.305
- relative viability (NCI-H1792; first compound 0.2 µM): 0.523
- relative viability (NCI-H1792; first compound 6.325 µM): 0.515
- relative viability (NCI-H1792; first compound 20 µM): 0.434
- relative viability (NCI-H2085; first compound 0.2 µM): 0.59
- relative viability (NCI-H2085; first compound 0.6325 µM): 0.459
- relative viability (NCI-H2085; first compound 2 µM): 0.526
- relative viability (NCI-H2085; first compound 6.325 µM): 0.526
- relative viability (NCI-H2085; first compound 20 µM): 0.198
- relative viability (NCI-H2342; first compound 0.2 µM): 0.671
- relative viability (NCI-H2342; first compound 0.6325 µM): 0.681
- relative viability (NCI-H2342; first compound 6.325 µM): 0.658
- relative viability (NCI-H2342; first compound 20 µM): 0.684
- relative viability (NCI-H2170; first compound 0.2 µM): 0.42
- relative viability (NCI-H2170; first compound 0.6325 µM): 0.324
- relative viability (NCI-H2170; first compound 2 µM): 0.43
- relative viability (NCI-H2170; first compound 6.325 µM): 0.457
- relative viability (NCI-H2170; first compound 20 µM): 0.457
- relative viability (LCLC-97TM1; first compound 0.2 µM): 0.286
- relative viability (LCLC-97TM1; first compound 0.6325 µM): 0.163
- relative viability (LCLC-97TM1; first compound 2 µM): 0.209
- relative viability (LCLC-97TM1; first compound 6.325 µM): 0.153
- relative viability (LCLC-97TM1; first compound 20 µM): 0.246
- relative viability (SK-MES-1; first compound 0.2 µM): 0.381
- relative viability (SK-MES-1; first compound 0.6325 µM): 0.32
- relative viability (SK-MES-1; first compound 2 µM): 0.376
- relative viability (SK-MES-1; first compound 6.325 µM): 0.339
- relative viability (SK-MES-1; first compound 20 µM): 0.337
- relative viability (201T; first compound 0.2 µM): 0.921
- relative viability (201T; first compound 0.6325 µM): 0.607
- relative viability (201T; first compound 2 µM): 0.762
- relative viability (201T; first compound 6.325 µM): 0.87
- relative viability (201T; first compound 20 µM): 0.896
- relative viability (NCI-H596; first compound 0.2 µM): 1.09
- relative viability (NCI-H596; first compound 0.6325 µM): 0.855
- relative viability (NCI-H596; first compound 2 µM): 0.989
- relative viability (NCI-H596; first compound 6.325 µM): 1.07
- relative viability (NCI-H596; first compound 20 µM): 0.655
- relative viability (ChaGo-K-1; first compound 0.2 µM): 0.514
- relative viability (ChaGo-K-1; first compound 0.6325 µM): 0.362
- relative viability (ChaGo-K-1; first compound 2 µM): 0.557
- relative viability (ChaGo-K-1; first compound 6.325 µM): 0.518
- relative viability (ChaGo-K-1; first compound 20 µM): 0.518
- relative viability (NCI-H2405; first compound 0.2 µM): 0.593
- relative viability (NCI-H2405; first compound 0.6325 µM): 0.508
- relative viability (NCI-H2405; first compound 6.325 µM): 0.645
- relative viability (NCI-H2405; first compound 20 µM): 0.296
